Numbers after ± are expanded uncertainties.
Experiment: excess molar enthalpy (molar enthalpy of mixing); xn = mol fraction of the nth substance listed
Settings: 100 kPa, Liquid, Calvet calorimetry

excess molar enthalpy (1006 K, x2 = 0.0993) | excess molar enthalpy (813 K, x1 = 0.9) | excess molar enthalpy (1017 K, x1 = 0.0996) | excess molar enthalpy (1018 K, x1 = 0.5) | Structure (SMILES)
-0.526 ± 0.287 kcal/mol | – | – | – | [Li] [lithium] + [Zn]
– | 0.191 ± 0.143 kcal/mol | 0.12 ± 0.0478 kcal/mol | 0.382 ± 0.0956 kcal/mol | [Zn] [zinc] + [Ga]

Reference: the NIST ThermoML archive (doi:10.1016/j.tca.2017.10.004)
